This note sets out measurements from patent US4342762A, “Basic ethers and pharmaceutical compositions containing the same” (Egyt Gyogyszervegyeszeti Gyar, priority 1979, dated 1982).

Data set [1] concerns white mice. Briefly: inhibition of pentetrazole convulsion (modified Banziger and Hane). It is filed as in vivo. As to the method:
(§1) The antiepileptic effect was investigated on white mice, after oral administration. The inhibition of maximal electroshock (MES) was determined by the method of Swinyard et al. [Swinyard et al. J. Pharmacol. Exp. Ther. 106, 319-330 (1952)]. White mice weighing 20-25 g were subjected to electric shock through corneal electrodes (Parameters: 50 Hz, 45 mA, 0.4 sec.). The total inhibition of the tonic extensor convulsion was considered as criterion of the anti-convulsive effect. The test-substance had been orally administered one hour before the electroshock. The inhibition of pentetrazole convulsion was determined on white mice by the modified method of Banziger and Hane [Banziger, R., Hane, L.D. Arch. Int. Pharmacodyn. 167, 245-249; (1967)]. I." stands for "therapeutic index."

Data set [2] has as its system white mice. Briefly: inhibition of nicotine-lethality (Stone). It counts as in vivo. The procedure: The inhibition of nicotine-lethality was determined on white mice by the method of Stone [Stone, C. A., Mecklenburg, K. L., Torchiana, M. L., Arch. Int. Pharmacodyn.
In data set [3] the test system is mice. Briefly: potentiating of hexobarbital-narcosis (Kaergaard). It counts as in vivo. The procedure: (§2) The effect on the inhibition of the oriental activity (inhibition of the motility) was investigated on white mice in a Dews apparatus applied with 8 canals by the method of Borsy [Borsy, J., Csanyi, E., Lazar, I., Arc. Int. Pharmacodyn. 124, 1-2 (1960)]. After an oral pretreatment of 30 minutes the number of light-interruptions due to the movements of groups consisting of 3-3 mice was registered. The observation lasted for 30 minutes. The effect of the compounds exerted on the duration of hexobarbital-narcosis was tested by the method of Kaergaard [Kaergaard, N. C., Magnussen, M. P., Kampmann, E., Frey, H. H., Arc. Int. Pharmacodyn. 2, 170; (1967)]. Groups of animals consisting of 6-6 mice were treated.

Data set [4] is described as follows: acute oral toxicity, graphic method of Litchfield-Wilcoxon, 4 days observation. Particulars: mouse, in vivo; oral, 20 ml/kg, both sexes 18-24 g, 4 days observation. As to the method: The analgesic effect of the new compounds according to the invention was determined by the method of Wirth et al. (Wirth, W., Gosswald, R., Horlein. K., Risse, Kl. H., Kreiskott, H.: Arch. Int. Pharmacodyn. 115, 1; (1958)). 0.4 ml of 0.5% acetic acid was administered i.p. to white mice, and the characteristic "writhing" reactions were counted after 5 minutes. […] The results are given in Table I. The toxicity data determined on white mice of both sexes weighing 18-24 g belonging to the strain CFLP are also given. Administration was effected with an oral dose of 20 ml/kg. After treatment the animals were kept under observation for 4 days. The toxicity data (LD50 mg/kg) were determined by the graphic method of Litchfield-Wilcoxon [Litchfield, J.T., Wilcoxon, E. W., J Pharmacol. Exp. Therap. 96, 99; (1949)].

Data set [5] relates to white mice. Briefly: analgesic effect, inhibition of acetic acid "writhing" reactions (Wirth et al.). It is filed as in vivo. As to the method: The analgesic effect of the new compounds according to the invention was determined by the method of Wirth et al. (Wirth, W., Gosswald, R., Horlein. K., Risse, Kl. H., Kreiskott, H.: Arch. Int. Pharmacodyn. 115, 1; (1958)). 0.4 ml of 0.5% acetic acid was administered i.p. to white mice, and the characteristic "writhing" reactions were counted after 5 minutes. The compounds to be tested had been orally administered an hour before the administration of the acetic acid. The activity is expressed as a percentage of the inhibition referred to the data observed on the control group. The results are given in Table I. The toxicity data determined on white mice of both sexes weighing 18-24 g belonging to the strain CFLP are also given. Administration was effected with an oral dose of 20 ml/kg. After treatment the animals were kept under observation for 4 days. The toxicity data (LD50 mg/kg) were determined by the graphic method of Litchfield-Wilcoxon [Litchfield, J.T., Wilcoxon, E. W., J Pharmacol. Exp. Therap. 96, 99; (1949)].
On the technique in general: In writhing tests, fewer writhes than in controls are read as antinociception.

The test system of data set [6] is white mice. Briefly: inhibition of motility, Dews apparatus (Borsy). It counts as in vivo. As to the method:
as §2

Data set [7] has as its system white mice. Briefly: inhibition of maximal electroshock (MES) (Swinyard et al.). It counts as in vivo. The procedure: as §1

With `CCN(CC)CCOC1(Cc2ccccc2)CC2CCC1(C)C2(C)C` (single isomer, unassigned) [Example 8, D-(+)-2-benzyl-2-(2'-diethylaminoethoxy)-1,7,7-trimethyl-bicyclo(2,2,1)heptane], the ED50 (usually the dose that gives a 50% effect, or the effect in half of the subjects) turned out to be 20 mg/kg in data set [1] (Mus musculus, oral); 11 mg/kg in data set [2] (Mus musculus, oral, 1 hour before 1.4 mg/kg nicotine); 60 mg/kg in data set [3] (Mus musculus, iv, 40 mg/kg hexobarbital i.v., positive: sleeping period at least 2.5 times control); 45 mg/kg in data set [5] (Mus musculus, po, read-out: Analgesic effect ED50); 60 mg/kg in data set [6] (Mus musculus, oral pretreatment 30 minutes, observation 30 minutes); 30 mg/kg in data set [7] (Mus musculus, oral, 1 hour before electroshock 50 Hz, 45 mA, 0.4 sec, total inhibition of tonic extensor convulsion). In data set [1] (therapeutic index, pentetrazole convulsion), the “Inhibition of pentetrazole convulsion Th. I.” value was 42.5. The “Inhibition of nicotine-lethality Therapeutic index” value in data set [2] (therapeutic index, nicotine-lethality) is 77.3. The “Potentiating of narcosis Th.I.” value in data set [3] (therapeutic index, narcosis) amounted to 14.2. For the same compound, the LD50 (usually the dose at which mortality reaches 50%) at 96 h in data set [4] worked out at 850 mg/kg. Further, the “Analgesic effect Therap.index” value in data set [5] (therapeutic index, analgesic effect) came out at 18.9. Besides, the “Inhibition of motility Th.I.” value in data set [6] (therapeutic index, motility) turned out to be 14.2. The “Inhibition of MES Th. I.” value in data set [7] (therapeutic index, MES) stood at 28.3.
